From US11420966B2 (ACLARIS THERAPEUTICS, INC., priority 2019, dated 2022) come the findings set out here.

The target in one test is JAK1 (Homo sapiens (Human), UniProt P23458). Briefly: JAK1 enzyme activity assay (Thermo Fisher SelectScreen, Z-lyte). The test is classed as biochemical. Conditions: read-out: JAK1 Inhibition IC50. On the procedure:
(§1) JAK1, JAK2, JAK3, and Tyk-2 Enzyme Activity Assays
(§2) The inhibitory potency of candidate compounds of JAK1, JAK2, and Tyk-2 was done at Thermo Fisher Scientific in their Selectscreen using a Z-lyte assay. Following are the assay details for each enzyme.
JAK: The 2×JAK-enzyme/Tyr 06 mixture is prepared in 50 mM HEPES pH 6.5, 0.01% BRIJ-35, 10 mM MgCl2, 1 mM EGTA, 0.02% NaN3. The final 10 μL of the Kinase Reaction consists of 21.2-91.5 ng JAK and 2 M Tyr 06 in 50 mM HEPES pH 7.0, 0.01% BRIJ-35, 10 mM MgCl2, 1 mM EGTA, 0.01% NaN3. After the one hour Kinase Reaction incubation, 5 μL of a 1:128 dilution of Development Reagent is added.
(§3) Data reduction for JAK1, JAK2 and TYK2 is done the same, independent of the enzyme run. In summary, background signal is defined in the absence of enzyme and uninhibited signal is defined in the presence of vehicle (2% DMSO) alone. Compounds were evaluated in an 11 point dose-response ranging from […] to 0.34 nM. IC50 values of compounds are determined using a 4 parameter logistical fit of emission ratio as a function of the concentration of compound.

The target of another test is JAK3 (a.a. 781-1124) (Homo sapiens (Human), UniProt P52333). Briefly: JAK3 enzyme activity assay (SRCtide phosphorylation, Caliper). Conditions: 1 uM ATP; read-out: JAK3 Inhibition IC50. Format: biochemical. The procedure: as §1
Sequence of JAK3 (a.a. 781-1124) (P52333 781-1124): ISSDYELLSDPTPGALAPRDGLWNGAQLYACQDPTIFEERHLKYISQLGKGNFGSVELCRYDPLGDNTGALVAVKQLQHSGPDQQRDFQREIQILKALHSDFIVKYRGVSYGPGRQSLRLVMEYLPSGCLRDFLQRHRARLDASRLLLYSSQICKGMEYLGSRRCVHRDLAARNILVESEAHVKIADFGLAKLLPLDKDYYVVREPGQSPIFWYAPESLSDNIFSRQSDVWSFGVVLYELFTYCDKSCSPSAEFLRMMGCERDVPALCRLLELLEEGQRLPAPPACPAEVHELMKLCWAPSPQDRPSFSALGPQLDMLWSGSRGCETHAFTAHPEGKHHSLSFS
Kinase reactions were run in a 384-well Greiner plate with 2% final DMSO concentration under the buffer conditions of 20 mM HEPES, pH 7.5, 10 mM MgCl2, 0.01% BSA, and 0.0005% Tween-20. The kinase reaction components were 2.5 nM JAK3, 1 μM SRCtide peptide and 1 uM ATP. Examples were tested in dose-response starting at 2 M (11 concentrations, 3-fold serial dilution, duplicate reactions). The reactions were incubated at room temperature for 40 minutes, then stopped by adding a 1:1 volume of 30 mM EDTA in 20 mM HEPES, pH 7.5 (15 mM EDTA final). After the reaction was stopped, the phosphorylated and unphosphorylated peptides were separated and quantified using a Caliper LC3000/EZ-Reader system and HTS Well Analyzer Software (Caliper, A PerkinElmer Company, Hopkinton, Mass.). GraFit (Erithacus Software Ltd., Horley, U.K.) was used to calculate inhibitor potency by fitting dose-response data to the 4-parameter logistical IC50 equation.

The next test concerns the target JAK2 (Homo sapiens (Human), UniProt O60674). Kind of test: JAK2 enzyme activity assay (Thermo Fisher SelectScreen, Z-lyte). The test is classed as biochemical. The following applies: read-out: JAK2 Inhibition IC50. The procedure: as §1, §2
JAK2: The 2×JAK2/Tyr 06 mixture is prepared in 50 mM HEPES pH 7.5, 0.01% BRIJ-35, 10 mM MgCl2, 1 mM EGTA. The final 10 μL Kinase Reaction consists of 0.12-0.5 ng JAK2 and 2 M Tyr 06 in 50 mM HEPES pH 7.5, 0.01% BRIJ-35, 10 mM MgCl2, 1 mM EGTA. After the one hour Kinase Reaction incubation, 5 μL of a 1:128 dilution of Development Reagent A is added.
as §3

The test system of test [1] is IL-2 stimulated STAT5 phosphorylation on Tyr694 (JAK1/3). Kind of test: JAK1/3 cellular target modulation: IL-2 stimulated phospho-STAT5 in PBMC. Format: cell-based. Conditions: human PBMC, IL-2 25 ng/ml; read-out: IL2-STAT5 IC50. An excerpt:
JAK Cellular Target Modulation Assays
Target modulation was based upon the ability of a compound to inhibit JAK isoform specific phosphorylation of selected substrates. IL-2 stimulated STAT5 phosphorylation on Tyr694 was used to assess JAK1/3 compound selectivity. GM-CSF stimulated STAT5 phosphorylation on Tyr694 was used to assess JAK2 compound selectivity. IFNγ stimulated STAT1 phosphorylation on Tyr701 was used to assess JAK1/2 compound selectivity. IL-12 stimulated STAT4 phosphorylation on Tyr693 was used to assess JAK2/TYK2 compound selectivity. For all four assays, human PBMC from frozen stocks were thawed, pelleted, resuspended in complete media (90% RPMI, 10% heat inactivated FBS, 10 mM HEPES, 47 μM 2-ME, pen/strep) and placed in wells of a 96 well V-bottom plate at 200,000 per well in 120 μl complete media. Compounds were added as 15 μl per well of 10× working stock solutions in complete media with 1% DMSO (or medium with 1% DMSO for controls) and placed on a plate shaker in a 37° C. incubator with 5% CO2 for 1 hour with gentle shaking (setting of 3). Stimulation used the addition of soluble cytokines. For the JAK1/3 phospho-STAT5 assay, 15 μl of 10× working stock recombinant human IL-2 was added to a final concentration of 25 ng/ml. For the JAK2 phospho-STAT5 assay, 15 μl of 10× working stock recombinant human GM-CSF was added to a final concentration of 5 ng/ml. For the JAK1/2 phospho-STAT1 assay, 15 μl of 10× working stock of recombinant human IFNγ was added to a final concentration of 10 ng/ml. For the JAK2/TYK2 phospho-STAT4 assay, 15 μl of 10× working stock of recombinant human IL-12 was added to a final concentration of 1.7 ng/ml. Plates were then placed back on the plate shaker in the incubator for an additional 5, 5, 10, and 25 minutes respectively upon which the plates were removed from the incubator, sealed with a plate sealer and the cells pelleted at 400×g for 5 minutes. After pelleting, the media was removed by aspiration and the cells were lysed in assay specific cell lysis buffer. The levels of phospho-STATS were determined using a Phospho (Tyr694) STAT5a,b Whole Cell Lysate kit from Meso Scale Discovery. Levels of phospho-STAT1 were determined using a CST-PathScan Phospho-STAT1 (Tyr701) Sandwich ELISA kit. Levels of phospho-STAT4 were determined using a Phospho-STAT4 (Tyr693) Whole Cell Lysate kit from Meso Scale Discovery.

Another test deals with Tyk-2 (Homo sapiens (Human), UniProt P29597). Kind of test: Tyk-2 enzyme activity assay (Thermo Fisher SelectScreen, Z-lyte). Format: biochemical. The following applies: read-out: Tyk-2 Inhibition IC50. On the procedure:
as §1, §2
TYK2: The 2×TYK2/Tyr 03 mixture is prepared in 50 mM HEPES pH 6.5, 0.01% BRIJ-35, 10 mM MgCl2, 1 mM EGTA, 0.02% NaN3. The final 10 μL Kinase Reaction consists of 3.75-15 ng TYK2 and 2 M Tyr 03 in 50 mM HEPES pH 7.0, 0.01% BRIJ-35, 10 mM MgCl2, 1 mM EGTA, 0.01% NaN3. After the one hour KinaseReaction incubation, 5 μL of a 1:4096 dilution of Development Reagent A is added.
as §3

Where only a bound is given, the exact number is not on record here.

Sequence of Tyk-2 (P29597 whole entry): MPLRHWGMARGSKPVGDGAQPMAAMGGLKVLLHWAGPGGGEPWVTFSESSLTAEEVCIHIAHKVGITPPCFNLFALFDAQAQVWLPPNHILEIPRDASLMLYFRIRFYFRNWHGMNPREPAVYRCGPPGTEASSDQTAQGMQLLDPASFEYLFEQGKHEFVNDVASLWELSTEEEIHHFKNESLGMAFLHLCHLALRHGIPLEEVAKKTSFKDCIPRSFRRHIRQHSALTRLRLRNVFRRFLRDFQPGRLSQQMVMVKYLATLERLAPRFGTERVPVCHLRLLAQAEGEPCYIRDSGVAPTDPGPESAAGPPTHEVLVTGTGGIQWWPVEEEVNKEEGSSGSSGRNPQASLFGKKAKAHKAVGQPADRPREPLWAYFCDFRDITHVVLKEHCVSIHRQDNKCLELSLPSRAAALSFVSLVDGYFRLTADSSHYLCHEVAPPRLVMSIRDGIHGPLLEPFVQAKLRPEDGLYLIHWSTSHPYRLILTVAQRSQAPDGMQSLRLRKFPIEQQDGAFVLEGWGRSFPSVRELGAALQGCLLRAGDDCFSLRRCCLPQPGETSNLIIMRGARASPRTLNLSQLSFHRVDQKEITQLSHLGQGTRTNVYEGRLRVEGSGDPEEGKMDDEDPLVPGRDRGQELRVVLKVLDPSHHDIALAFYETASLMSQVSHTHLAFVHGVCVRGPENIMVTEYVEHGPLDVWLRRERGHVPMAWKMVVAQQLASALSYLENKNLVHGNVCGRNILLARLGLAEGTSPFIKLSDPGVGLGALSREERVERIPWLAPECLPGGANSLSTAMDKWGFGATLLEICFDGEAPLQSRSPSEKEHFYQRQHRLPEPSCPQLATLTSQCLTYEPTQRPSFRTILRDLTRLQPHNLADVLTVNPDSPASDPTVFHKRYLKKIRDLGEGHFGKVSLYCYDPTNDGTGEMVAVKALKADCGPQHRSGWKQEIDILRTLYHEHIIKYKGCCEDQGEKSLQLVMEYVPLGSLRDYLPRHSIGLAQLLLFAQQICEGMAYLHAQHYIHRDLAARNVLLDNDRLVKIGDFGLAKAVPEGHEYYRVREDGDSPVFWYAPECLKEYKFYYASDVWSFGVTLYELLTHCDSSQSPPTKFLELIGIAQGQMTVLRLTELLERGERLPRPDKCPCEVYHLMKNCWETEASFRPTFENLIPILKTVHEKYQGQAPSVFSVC
Sequence of JAK2 (O60674 whole entry): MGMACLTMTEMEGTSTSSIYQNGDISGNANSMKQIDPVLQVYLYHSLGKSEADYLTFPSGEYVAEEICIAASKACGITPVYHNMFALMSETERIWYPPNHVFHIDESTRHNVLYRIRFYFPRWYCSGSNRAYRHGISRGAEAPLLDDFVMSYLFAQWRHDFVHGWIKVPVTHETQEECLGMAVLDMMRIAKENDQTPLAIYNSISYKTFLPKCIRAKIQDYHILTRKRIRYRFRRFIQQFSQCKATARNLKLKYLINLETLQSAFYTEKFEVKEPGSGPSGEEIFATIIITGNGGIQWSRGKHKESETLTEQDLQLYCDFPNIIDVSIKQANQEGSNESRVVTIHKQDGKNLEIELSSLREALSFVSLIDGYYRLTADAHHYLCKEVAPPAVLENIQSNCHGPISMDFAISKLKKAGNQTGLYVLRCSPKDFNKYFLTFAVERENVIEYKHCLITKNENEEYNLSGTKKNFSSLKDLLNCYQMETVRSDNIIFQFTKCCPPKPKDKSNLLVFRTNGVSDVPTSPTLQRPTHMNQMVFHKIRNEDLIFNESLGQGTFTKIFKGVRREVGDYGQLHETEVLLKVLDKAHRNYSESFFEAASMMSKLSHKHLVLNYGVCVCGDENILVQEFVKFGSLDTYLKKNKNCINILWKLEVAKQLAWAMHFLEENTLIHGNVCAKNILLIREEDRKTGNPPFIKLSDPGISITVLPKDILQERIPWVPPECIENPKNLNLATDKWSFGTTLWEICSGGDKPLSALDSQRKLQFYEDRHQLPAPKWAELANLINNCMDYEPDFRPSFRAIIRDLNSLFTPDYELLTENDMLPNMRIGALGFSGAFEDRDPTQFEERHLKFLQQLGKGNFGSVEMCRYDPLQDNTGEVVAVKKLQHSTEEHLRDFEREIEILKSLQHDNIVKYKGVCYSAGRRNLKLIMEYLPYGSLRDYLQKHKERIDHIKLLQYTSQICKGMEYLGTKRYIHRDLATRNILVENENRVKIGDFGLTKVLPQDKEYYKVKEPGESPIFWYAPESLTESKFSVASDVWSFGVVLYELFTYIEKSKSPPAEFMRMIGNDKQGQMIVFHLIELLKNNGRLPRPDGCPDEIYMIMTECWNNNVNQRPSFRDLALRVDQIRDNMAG
Sequence of JAK1 (P23458 whole entry): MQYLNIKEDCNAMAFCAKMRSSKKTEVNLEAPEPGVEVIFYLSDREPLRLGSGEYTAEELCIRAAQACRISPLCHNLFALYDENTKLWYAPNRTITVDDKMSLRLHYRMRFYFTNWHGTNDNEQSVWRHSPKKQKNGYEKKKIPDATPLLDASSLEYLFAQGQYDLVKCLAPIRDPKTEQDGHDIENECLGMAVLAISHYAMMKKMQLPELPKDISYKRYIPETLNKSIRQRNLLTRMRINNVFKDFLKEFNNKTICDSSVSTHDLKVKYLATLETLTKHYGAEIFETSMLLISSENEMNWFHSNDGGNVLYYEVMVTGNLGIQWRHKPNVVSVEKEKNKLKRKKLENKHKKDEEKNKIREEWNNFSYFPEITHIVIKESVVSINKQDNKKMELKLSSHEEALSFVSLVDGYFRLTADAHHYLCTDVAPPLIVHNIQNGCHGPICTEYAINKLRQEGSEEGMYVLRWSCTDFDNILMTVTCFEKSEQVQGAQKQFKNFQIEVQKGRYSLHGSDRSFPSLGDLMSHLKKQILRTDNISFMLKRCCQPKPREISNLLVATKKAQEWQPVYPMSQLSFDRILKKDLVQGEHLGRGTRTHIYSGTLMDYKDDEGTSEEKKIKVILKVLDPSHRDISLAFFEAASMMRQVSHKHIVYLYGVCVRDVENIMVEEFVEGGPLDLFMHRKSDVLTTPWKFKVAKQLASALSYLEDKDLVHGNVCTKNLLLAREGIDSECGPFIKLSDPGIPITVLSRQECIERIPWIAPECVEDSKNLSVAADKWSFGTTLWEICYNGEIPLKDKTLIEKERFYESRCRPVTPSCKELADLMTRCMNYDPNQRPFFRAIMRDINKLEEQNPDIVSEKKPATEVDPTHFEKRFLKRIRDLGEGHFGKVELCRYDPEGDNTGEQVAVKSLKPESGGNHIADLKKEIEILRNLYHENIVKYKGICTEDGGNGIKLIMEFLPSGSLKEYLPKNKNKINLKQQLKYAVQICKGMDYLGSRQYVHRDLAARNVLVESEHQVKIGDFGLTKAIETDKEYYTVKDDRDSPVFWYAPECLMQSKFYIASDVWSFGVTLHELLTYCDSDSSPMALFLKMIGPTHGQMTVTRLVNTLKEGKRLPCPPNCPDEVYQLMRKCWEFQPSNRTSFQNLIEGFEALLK

As for `CN(C(=O)CC#N)C1CCN(c2nccc(-c3cnc4[nH]ccc4c3N[C@@H]3CCCN(C(=O)CC#N)C3)n2)C1` (stereo partly drawn) [Example 50, 2-cyano-N-(1-(4-(4-(((R)-1-(2-cyanoacetyl)piperidin-3-yl)amino)-1H-pyrrolo[2,3-b]pyridin-5-yl)pyrimidin-2-yl)pyrrolidin-3-yl)-N-methylacetamide], the IC50 (usually the concentration needed to halve the response being measured) on JAK1 was no more than 10 nM; at JAK3 (a.a. 781-1124), no more than 10 nM; at JAK2 it was 10 to 100 nM; in test [1] it was greater than 1000 nM; on Tyk-2 it was 10 to 100 nM.
Turning to `C[C@@H]1C[C@H](Nc2c(-c3ncco3)cnc3[nH]ccc23)CN(C(=O)CC#N)C1` (single isomer, unassigned) [Example 9], the IC50 at JAK1 is 100 to 1000 nM; at JAK3 (a.a. 781-1124), 10 to 100 nM; on JAK2, 100 to 1000 nM; in test [1], greater than 1000 nM; at Tyk-2 it was 100 to 1000 nM.
As to `C[C@@H]1C[C@H](Nc2c(-c3ccncn3)cnc3[nH]ccc23)CN(C(=O)CC#N)C1` [Example 57, 3-((3R,5S)-3-methyl-5-((5-(pyrimidin-4-yl)-1H-pyrrolo[2,3-b]pyridin-4-yl)amino)piperidin-1-yl)-3-oxopropanenitrile], the IC50 at JAK1 is 100 to 1000 nM; on JAK3 (a.a. 781-1124) it was 10 to 100 nM; on JAK2 it was 100 to 1000 nM; in test [1] it was greater than 1000 nM; at Tyk-2, 100 to 1000 nM.
On to `CS(=O)(=O)Nc1ccnc(-c2cnc3[nH]ccc3c2N[C@@H]2CCCN(C(=O)CC#N)C2)c1` [Example 56, (R)-N-(2-(4-((1-(2-cyanoacetyl)piperidin-3-yl)amino)-1H-pyrrolo[2,3-b]pyridin-5-yl)pyridin-4-yl)methanesulfonamide], for which the IC50 at JAK1 was 10 to 100 nM; on JAK3 (a.a. 781-1124), 100 to 1000 nM; on JAK2, 100 to 1000 nM; in test [1], greater than 1000 nM; on Tyk-2, 100 to 1000 nM.
For the compound `CNC(=O)c1ccnc(-c2cnc3[nH]ccc3c2N[C@@H]2CCCN(C(=O)CC#N)C2)c1` [Example 61, (R)-2-(4-((1-(2-cyanoacetyl)piperidin-3-yl)amino)-1H-pyrrolo[2,3-b]pyridin-5-yl)-N-methylisonicotinamide], the IC50 on JAK1 is 10 to 100 nM; at JAK3 (a.a. 781-1124), 10 to 100 nM; at JAK2 it was 10 to 100 nM; in test [1] it was greater than 1000 nM; at Tyk-2 it was 100 to 1000 nM.
As for `N#CCC(=O)N1CCC[C@@H](Nc2c(-c3ccncn3)cnc3[nH]ccc23)C1` [Example 24, (R)-3-oxo-3-(3-((5-(pyrimidin-4-yl)-1H-pyrrolo[2,3-b]pyridin-4-yl)amino)piperidin-1-yl)propanenitrile], the concentration for half-maximal inhibition (IC50) at JAK1, at JAK3 (a.a. 781-1124) and on Tyk-2 was no more than 10 nM throughout.
In the case of `CNC(=O)c1coc(-c2cnc3[nH]ccc3c2N[C@H]2C[C@@H](C)CN(C(=O)CC#N)C2)n1` [Example 32, 2-(4-(((3S,5R)-1-(2-cyanoacetyl)-5-methylpiperidin-3-yl)amino)-1H-pyrrolo[2,3-b]pyridin-5-yl)-N-methyloxazole-4-carboxamide], the IC50 was 100 to 1000 nM on JAK1; 10 to 100 nM at JAK3 (a.a. 781-1124); 100 to 1000 nM on JAK2; greater than 1000 nM in test [1]; 100 to 1000 nM at Tyk-2.
On to `CN(C)S(=O)(=O)Nc1ccnc(-c2cnc3[nH]ccc3c2N[C@@H]2CCCN(C(=O)CC#N)C2)c1` [Example 54, (R)-N-(2-(4-((1-(2-cyanoacetyl)piperidin-3-yl)amino)-1H-pyrrolo[2,3-b]pyridin-5-yl)pyridin-4-yl)N,N-dimethyl sulfuric diamide], for which the IC50 is 10 to 100 nM on JAK1; 100 to 1000 nM at JAK3 (a.a. 781-1124); 10 to 100 nM at JAK2; greater than 1000 nM in test [1]; 100 to 1000 nM on Tyk-2.
In the case of `Cc1ccnc(-c2cnc3[nH]ccc3c2N[C@@H]2CCCN(C(=O)CC#N)C2)n1` [Example 60], the IC50 on JAK1 was no more than 10 nM; on Tyk-2 it was 10 to 100 nM.
On to `N#CCC(=O)N1CCC[C@@H](Nc2c(-c3nncs3)cnc3[nH]ccc23)C1` [Example 8, (R)-3-(3-((5-(1,3,4-thiadiazol-2-yl)-1H-pyrrolo[2,3-b]pyridin-4-yl)amino)piperidin-1-yl)-3-oxopropanenitrile], for which the concentration for half-maximal inhibition (IC50) on JAK1 is no more than 10 nM.
